{
  "source": "paper PMC4377985",
  "about": "“Cytotoxic and Antibacterial Angucycline- and Prodigiosin- Analogues from the Deep-Sea Derived Streptomyces sp. SCSIO 11594” (Marine Drugs, 2015)",
  "key": {"[1]": {"system": "four human cancer cell lines A549, CNE2, HepG2, MCF-7", "experiment": "in vitro cytotoxicity, MTT, panel of four cancer cell lines", "format": "cell-based", "details": "for estimated therapeutic ratio (TR): comparison of tumor cell-derived IC50 values with HL7702 IC50; for fold more cytotoxic/potent than the positive control cisplatin: relative to cisplatin, cancer cell lines", "protocol": "Compounds 1–5 were tested for potential in vitro cytotoxicity against human lung cancer cell line A549, human nasopharyngeal carcinoma cell line CNE2, human breast adenocarcinoma cell line MCF-7, human hepatocarcinoma cancer cell line HepG2, and the normal hepatic cell line HL7702. […] The anticancer activity of the related natural products has been described in a number of literatures, and the structure activity relationships of related synthetic natural products have been reported.\nCompounds 1–5 were evaluated for cytotoxic activity using four human cancer cell lines, A549, CNE2, HepG2, MCF-7, one normal hepatic cell line HL7702 and previously reported MTT methodologies. IC50 values were calculated using GraphPad Prism 5 software. All data were obtained in triplicate and are presented as means ± SD. Cisplatin was used as a positive control."}, "[2]": {"system": "human breast adenocarcinoma cell line MCF-7", "experiment": "in vitro cytotoxicity, MTT", "format": "cell-based", "protocol": "(§1) The anticancer activity of the related natural products has been described in a number of literatures, and the structure activity relationships of related synthetic natural products have been reported.\n(§2) IC50 values were calculated using GraphPad Prism 5 software. All data were obtained in triplicate and are presented as means ± SD."}, "[3]": {"system": "human hepatocarcinoma cancer cell line HepG2", "experiment": "in vitro cytotoxicity, MTT", "format": "cell-based", "protocol": "as §1, §2"}, "[4]": {"experiment": "in vitro cytotoxicity, MTT", "format": "cell-based", "details": "human, normal hepatic cell line HL7702, MTT, n = 3, mean ± SD", "protocol": "as §1, §2"}, "[5]": {"system": "human lung cancer cell line A549", "experiment": "in vitro cytotoxicity, MTT", "format": "cell-based", "protocol": "as §1, §2"}, "[6]": {"system": "human nasopharyngeal carcinoma cell line CNE2", "experiment": "in vitro cytotoxicity, MTT", "format": "cell-based", "protocol": "as §1, §2"}, "[7]": {"system": "MRSE shhs-E1", "experiment": "antibacterial activity, dilution susceptibility test", "format": "cell-based, methicillin-resistant Staphylococcus epidermidis", "details": "Staphylococcus epidermidis", "protocol": "(§3) The antibacterial activities of compounds 1–5 were evaluated using MRSE shhs-E1, methicillin-resistant Staphylococcus aureus (MRSA) shhs-A1, Staphylococcus aureus ATCC 29213, Enterococcus faecalis ATCC29212, Escherichia coli ATCC 25922, Micrococcus luteus, and multidrug resistant Pseudomonas aeruginosa.\n(§4) The antibacterial activities of compounds 1–5 were assessed using seven strains of pathogenic bacteria including MRSE shhs-E1, MRSA shhs-A1, Staphylococcus aureus ATCC 29213, Enterococcus faecalis ATCC29212, Escherichia coli ATCC 25922, Micrococcus luteus, and multidrug resistant Pseudomonas aeruginosa. Dilution antimicrobial susceptibility tests for aerobic bacteria were carried out as previously reported."}, "[8]": {"system": "MRSA shhs-A1", "experiment": "antibacterial activity, dilution susceptibility test", "format": "cell-based, methicillin-resistant Staphylococcus aureus", "details": "Staphylococcus aureus", "protocol": "as §3, §4"}, "[9]": {"system": "Escherichia coli ATCC 25922", "experiment": "antibacterial activity, dilution susceptibility test", "format": "cell-based", "details": "ATCC25922", "protocol": "as §3, §4"}, "[10]": {"system": "Micrococcus luteus", "experiment": "antibacterial activity, dilution susceptibility test", "format": "cell-based", "protocol": "as §3, §4"}, "[11]": {"system": "Enterococcus faecalis ATCC29212", "experiment": "antibacterial activity, dilution susceptibility test", "format": "cell-based", "protocol": "as §3, §4"}, "[12]": {"system": "Staphylococcus aureus ATCC 29213", "experiment": "antibacterial activity, dilution susceptibility test", "format": "cell-based", "details": "ATCC29213", "protocol": "as §3, §4"}, "[13]": {"system": "multidrug resistant Pseudomonas aeruginosa", "experiment": "antibacterial activity, dilution susceptibility test", "format": "cell-based", "protocol": "as §3, §4"}, "[14]": {"details": "MCF7, MCF-7, MTT, n = 3, mean ± SD, read-out: in vitro cytotoxicity IC50, MCF-7"}, "[15]": {"details": "HepG2, MTT, n = 3, mean ± SD, read-out: in vitro cytotoxicity IC50, HepG2"}, "[16]": {"details": "A549, MTT, n = 3, mean ± SD, read-out: in vitro cytotoxicity IC50, A549"}, "[17]": {"details": "CNE-2, CNE2, MTT, n = 3, mean ± SD, read-out: in vitro cytotoxicity IC50, CNE2"}},
  "note": "Read-outs that look alike come from different tables or passages of the source.",
  "data": [
    {"molecule": "Cc1cc(O)c2c3c(ccc2c1)C(=O)c1c(ccc(C2CC4OC5CC(=O)C(C)OC5OC4C(C)O2)c1O)C3=O", "note": "(stereo not shown) [Compound 2, marangucycline B]", "values": [
      {"measurement": "IC50", "setting": "[1]; Homo sapiens, four cancer cell lines, read-out: IC50 values against cancer cell lines (range over the panel)", "result": "0.24 to 0.56", "unit": "µM"},
      {"measurement": "estimated therapeutic ratio (TR)", "setting": "[1]", "result": "7–15"},
      {"measurement": "fold more cytotoxic/potent than the positive control cisplatin", "setting": "[1]", "result": "10–20 fold"},
      {"measurement": "IC50", "setting": "[2]; [14]", "result": "0.24 ± 0.003", "unit": "µM"},
      {"measurement": "IC50", "setting": "[3]; [15]", "result": "0.43 ± 0.05", "unit": "µM"},
      {"measurement": "IC50", "setting": "[4]; HL7702 normal hepatic cells", "result": "3.67 ± 0.07", "unit": "µM"},
      {"measurement": "IC50", "setting": "[5]; [16]", "result": "0.45 ± 0.03", "unit": "µM"},
      {"measurement": "IC50", "setting": "[6]; [17]", "result": "0.56 ± 0.02", "unit": "µM"}
    ]},
    {"molecule": "Cc1cc(O)c2c3c(ccc2c1)C(=O)c1c(ccc([C@H]2C[C@@H](O)[C@H](O[C@H]4CC[C@@H](O)[C@H](C)O4)[C@@H](C)O2)c1O)C3=O", "note": "[Compound 1, marangucycline A]", "values": [
      {"measurement": "IC50", "setting": "[2]; [14]", "result": "> 50", "unit": "µM"},
      {"measurement": "IC50", "setting": "[3]; [15]", "result": "> 50", "unit": "µM"},
      {"measurement": "IC50", "setting": "[4]; HL7702 normal hepatic cells", "result": "> 50", "unit": "µM"},
      {"measurement": "IC50", "setting": "[5]; [16]", "result": "> 50", "unit": "µM"},
      {"measurement": "IC50", "setting": "[6]; [17]", "result": "> 50", "unit": "µM"}
    ]},
    {"molecule": "CCC1CCCCCCCCC2=N/C(=C\\c3[nH]c(-c4ccc[nH]4)cc3OC)C1=C2", "note": "(stereo not shown) [Compound 5, metacycloprodigiosin]", "values": [
      {"measurement": "MIC", "setting": "[7]; MRSE", "result": "> 64", "unit": "µg/mL"},
      {"measurement": "MIC", "setting": "[8]", "result": "> 64", "unit": "µg/mL"},
      {"measurement": "MIC", "setting": "[9]", "result": "> 64", "unit": "µg/mL"},
      {"measurement": "MIC", "setting": "[10]", "result": "> 64", "unit": "µg/mL"},
      {"measurement": "MIC", "setting": "[11]", "result": "> 64", "unit": "µg/mL"},
      {"measurement": "MIC", "setting": "[12]", "result": "> 64", "unit": "µg/mL"},
      {"measurement": "MIC", "setting": "[13]", "result": "> 64", "unit": "µg/mL"},
      {"measurement": "IC50", "setting": "[2]; MCF7, read-out: in vitro cytotoxicity IC50, MCF-7", "result": "> 50", "unit": "µM"},
      {"measurement": "IC50", "setting": "[3]; HepG2, read-out: in vitro cytotoxicity IC50, HepG2", "result": "> 50", "unit": "µM"},
      {"measurement": "IC50", "setting": "[4]", "result": "> 50", "unit": "µM"},
      {"measurement": "IC50", "setting": "[5]; A549, read-out: in vitro cytotoxicity IC50, A549", "result": "> 50", "unit": "µM"},
      {"measurement": "IC50", "setting": "[6]; CNE-2, read-out: in vitro cytotoxicity IC50, CNE2", "result": "> 50", "unit": "µM"}
    ]},
    {"molecule": "Cc1cc(O)c2c3c(ccc2c1)C(=O)c1c(ccc([C@H]2C[C@@H](O)[C@H](O)[C@@H](C)O2)c1O)C3=O", "note": "[Compound 3, dehydroxyaquayamycin]", "values": [
      {"measurement": "MIC", "setting": "[7]; MRSE shhs-E1, read-out: MIC", "result": 16, "unit": "µg/mL"},
      {"measurement": "estimated therapeutic ratio (TR)", "setting": "[1]", "result": "2–3"},
      {"measurement": "IC50", "setting": "[2]; [14]", "result": "23.65 ± 0.09", "unit": "µM"},
      {"measurement": "IC50", "setting": "[3]; [15]", "result": "18.81 ± 0.12", "unit": "µM"},
      {"measurement": "IC50", "setting": "[4]; HL7702 normal hepatic cells", "result": "49.34 ± 0.17", "unit": "µM"},
      {"measurement": "IC50", "setting": "[5]; [16]", "result": "16.4 ± 0.19", "unit": "µM"},
      {"measurement": "IC50", "setting": "[6]; [17]", "result": "22.27 ± 0.07", "unit": "µM"}
    ]},
    {"molecule": "CCCCCCCCCCCC1=N/C(=C\\c2[nH]c(-c3ccc[nH]3)cc2OC)C=C1", "note": "[Compound 4, undecylprodigiosin]", "values": [
      {"measurement": "MIC", "setting": "[7]; MRSE", "result": "> 64", "unit": "µg/mL"},
      {"measurement": "estimated therapeutic ratio (TR)", "setting": "[1]", "result": "3–45"},
      {"measurement": "fold more cytotoxic/potent than the positive control cisplatin", "setting": "[1]", "result": "1–10 fold"},
      {"measurement": "MIC", "setting": "[8]", "result": "> 64", "unit": "µg/mL"},
      {"measurement": "MIC", "setting": "[9]", "result": "> 64", "unit": "µg/mL"},
      {"measurement": "MIC", "setting": "[10]", "result": "> 64", "unit": "µg/mL"},
      {"measurement": "MIC", "setting": "[11]", "result": "> 64", "unit": "µg/mL"},
      {"measurement": "MIC", "setting": "[12]", "result": "> 64", "unit": "µg/mL"},
      {"measurement": "MIC", "setting": "[13]", "result": "> 64", "unit": "µg/mL"},
      {"measurement": "IC50", "setting": "[2]; [14]", "result": "1.11 ± 0.07", "unit": "µM"},
      {"measurement": "IC50", "setting": "[3]; [15]", "result": "4.67 ± 0.09", "unit": "µM"},
      {"measurement": "IC50", "setting": "[4]; HL7702 normal hepatic cells", "result": "12.47 ± 0.09", "unit": "µM"},
      {"measurement": "IC50", "setting": "[5]; [16]", "result": "0.85 ± 0.01", "unit": "µM"},
      {"measurement": "IC50", "setting": "[6]; [17]", "result": "0.28 ± 0.02", "unit": "µM"}
    ]}
  ]
}
